Assay results: ChEMBL document CHEMBL4387728, “Synthetic glycopeptides reveal specific binding pattern and conformational change at O-mannosylated position of α-dystroglycan by POMGnT1 catalyzed GlcNAc modification” (Bioorg Med Chem, 2019)
Activity calls are given as the source filed them. No cut-off for these calls is given here. Peptide text beside a SMILES is read from it. * marks the point of attachment. X1 = CC(=O)N[C@H]1[C@H](O[C@H]2[C@@H](O)[C@H](O)[C@@H](CO)O[C@@H]2*)O[C@H](CO)[C@@H](O[C@@H]2O[C@H](CO)[C@H](O)[C@H](O[C@]3(C(=O)O)C[C@H](O)[C@@H](NC(C)=O)[C@H]([C@H](O)[C@H](O)CO)O3)[C@H]2O)[C@@H]1O; X2 = CC(=O)N[C@H]1[C@H](O[C@H]2[C@@H](O)[C@H](O)[C@@H](CO)O[C@@H]2*)O[C@H](CO)[C@@H](O[C@@H]2O[C@H](CO)[C@H](O)[C@H](O)[C@H]2O)[C@@H]1O; GlcNAc(β1-2)αMan = CC(=O)N[C@H]1[C@H](O[C@H]2[C@@H](O)[C@H](O)[C@@H](CO)O[C@@H]2*)O[C@H](CO)[C@@H](O)[C@@H]1O; Hexanoyl(5-oxo) = CC(=O)CCCC(=O)*

Key:
[1] = target: Laminin subunit alpha-1 (Homo sapiens) (UniProt P25391); experiment: Binding affinity to biotin-labeled human recombinant laminin-1 at 10 ug/ml in pH 5.6 MES buffer by fluorescence microarray method
Laminin subunit alpha-1 (Homo sapiens), sequence (P25391 whole entry): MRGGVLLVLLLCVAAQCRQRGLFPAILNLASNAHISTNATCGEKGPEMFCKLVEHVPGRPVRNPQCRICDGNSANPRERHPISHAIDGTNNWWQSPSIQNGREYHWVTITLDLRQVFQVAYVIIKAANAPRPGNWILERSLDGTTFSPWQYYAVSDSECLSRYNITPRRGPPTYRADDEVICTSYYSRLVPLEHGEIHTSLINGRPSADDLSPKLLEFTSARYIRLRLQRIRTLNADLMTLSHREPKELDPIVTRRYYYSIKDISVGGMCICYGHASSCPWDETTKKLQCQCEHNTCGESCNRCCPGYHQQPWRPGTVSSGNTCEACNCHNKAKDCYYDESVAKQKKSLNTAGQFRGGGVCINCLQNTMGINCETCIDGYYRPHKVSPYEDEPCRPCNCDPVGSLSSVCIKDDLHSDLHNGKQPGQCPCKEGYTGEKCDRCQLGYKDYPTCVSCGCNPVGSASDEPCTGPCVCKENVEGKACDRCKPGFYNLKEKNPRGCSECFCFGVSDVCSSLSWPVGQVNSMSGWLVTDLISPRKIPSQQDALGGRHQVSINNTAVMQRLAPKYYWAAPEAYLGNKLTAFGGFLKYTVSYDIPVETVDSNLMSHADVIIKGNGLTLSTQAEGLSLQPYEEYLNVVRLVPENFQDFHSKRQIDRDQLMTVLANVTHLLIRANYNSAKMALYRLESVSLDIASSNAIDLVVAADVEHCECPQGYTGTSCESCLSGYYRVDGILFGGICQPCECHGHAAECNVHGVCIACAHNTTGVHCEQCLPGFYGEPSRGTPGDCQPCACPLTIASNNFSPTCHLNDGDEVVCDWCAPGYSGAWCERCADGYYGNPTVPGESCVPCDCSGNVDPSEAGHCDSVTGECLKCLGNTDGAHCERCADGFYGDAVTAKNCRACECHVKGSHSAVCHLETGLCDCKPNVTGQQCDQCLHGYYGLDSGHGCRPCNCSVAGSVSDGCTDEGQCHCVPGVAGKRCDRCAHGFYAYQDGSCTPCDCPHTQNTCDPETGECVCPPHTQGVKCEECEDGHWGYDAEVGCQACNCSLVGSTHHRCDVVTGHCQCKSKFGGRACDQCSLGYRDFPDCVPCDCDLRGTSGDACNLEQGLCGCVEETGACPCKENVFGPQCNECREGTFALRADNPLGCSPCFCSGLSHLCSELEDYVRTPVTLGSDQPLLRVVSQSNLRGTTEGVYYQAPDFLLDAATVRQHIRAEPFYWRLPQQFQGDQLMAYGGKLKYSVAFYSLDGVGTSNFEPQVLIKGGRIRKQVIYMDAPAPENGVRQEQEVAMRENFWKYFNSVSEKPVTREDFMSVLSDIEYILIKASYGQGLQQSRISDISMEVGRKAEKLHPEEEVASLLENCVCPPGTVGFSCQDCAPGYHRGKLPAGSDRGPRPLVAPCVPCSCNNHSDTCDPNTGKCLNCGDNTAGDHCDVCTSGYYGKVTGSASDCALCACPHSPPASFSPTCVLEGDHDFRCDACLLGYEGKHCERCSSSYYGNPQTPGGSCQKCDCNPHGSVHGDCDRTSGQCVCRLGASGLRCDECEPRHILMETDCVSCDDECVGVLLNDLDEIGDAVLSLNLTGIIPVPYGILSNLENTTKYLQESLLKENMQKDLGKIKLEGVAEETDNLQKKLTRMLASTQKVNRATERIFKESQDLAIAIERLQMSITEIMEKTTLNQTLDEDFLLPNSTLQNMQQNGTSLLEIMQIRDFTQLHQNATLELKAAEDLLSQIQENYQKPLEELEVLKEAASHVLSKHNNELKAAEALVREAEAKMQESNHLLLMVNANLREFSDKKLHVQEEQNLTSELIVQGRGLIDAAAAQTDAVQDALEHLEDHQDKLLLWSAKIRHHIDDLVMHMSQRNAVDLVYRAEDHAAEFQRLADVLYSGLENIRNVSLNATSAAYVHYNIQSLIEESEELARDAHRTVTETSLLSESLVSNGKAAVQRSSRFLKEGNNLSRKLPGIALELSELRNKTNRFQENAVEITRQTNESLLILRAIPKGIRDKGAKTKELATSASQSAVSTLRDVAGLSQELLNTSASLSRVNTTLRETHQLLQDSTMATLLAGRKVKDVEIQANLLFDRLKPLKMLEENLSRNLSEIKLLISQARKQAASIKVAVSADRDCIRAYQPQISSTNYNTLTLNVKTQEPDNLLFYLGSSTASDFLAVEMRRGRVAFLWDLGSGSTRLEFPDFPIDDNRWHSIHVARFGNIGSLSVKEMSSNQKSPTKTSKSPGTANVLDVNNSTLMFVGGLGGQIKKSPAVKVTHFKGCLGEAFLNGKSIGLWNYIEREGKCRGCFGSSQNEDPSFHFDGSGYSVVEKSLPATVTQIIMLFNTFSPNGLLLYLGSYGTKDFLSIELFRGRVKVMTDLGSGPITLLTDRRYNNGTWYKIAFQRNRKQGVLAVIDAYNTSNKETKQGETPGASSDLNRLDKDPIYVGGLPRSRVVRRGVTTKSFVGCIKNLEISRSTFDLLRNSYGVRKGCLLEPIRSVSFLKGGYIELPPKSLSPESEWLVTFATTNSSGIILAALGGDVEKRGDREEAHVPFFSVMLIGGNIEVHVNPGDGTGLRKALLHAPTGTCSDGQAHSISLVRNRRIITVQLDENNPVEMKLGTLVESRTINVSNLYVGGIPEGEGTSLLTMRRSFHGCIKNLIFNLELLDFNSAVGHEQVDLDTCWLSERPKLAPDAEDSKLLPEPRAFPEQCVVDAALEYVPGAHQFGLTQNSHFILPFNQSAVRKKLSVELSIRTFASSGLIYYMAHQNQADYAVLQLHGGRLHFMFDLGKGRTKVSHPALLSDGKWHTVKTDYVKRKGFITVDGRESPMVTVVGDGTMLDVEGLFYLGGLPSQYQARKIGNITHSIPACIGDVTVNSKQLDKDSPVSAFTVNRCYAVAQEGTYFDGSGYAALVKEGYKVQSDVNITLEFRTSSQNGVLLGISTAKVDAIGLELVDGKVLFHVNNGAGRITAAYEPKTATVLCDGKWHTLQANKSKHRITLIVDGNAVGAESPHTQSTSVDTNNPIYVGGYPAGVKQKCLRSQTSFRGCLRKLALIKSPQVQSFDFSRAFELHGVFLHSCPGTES

[2] = species on record: Homo sapiens; experiment: Binding affinity to biotin-labeled human recombinant laminin-2 at 10 ug/ml in pH 7.4 Tris buffer by fluorescence microarray method
[3] = tested on: Erythrina crista-galli; experiment: Binding affinity to biotin-labeled Erythrina crista-galli agglutinin in pH 7.4 Tris buffer by fluorescence microarray method
[4] = tested on: Datura stramonium; experiment: Binding affinity to biotin-labeled Datura stramonium agglutinin in pH 7.4 Tris buffer by fluorescence microarray method
[5] = tested on: Arachis hypogaea; experiment: Binding affinity to biotin-labeled Arachis hypogaea agglutinin in pH 7.4 Tris buffer by fluorescence microarray method
[6] = tested on: Maackia amurensis; experiment: Binding affinity to biotin-labeled Maackia amurensis agglutinin in pH 7.4 Tris buffer by fluorescence microarray method
[7] = tested on: Sambucus racemosa subsp. sieboldiana; experiment: Binding affinity to biotin-labeled Sambucus sieboldiana agglutinin in pH 7.4 Tris buffer by fluorescence microarray method
[8] = Binding affinity to biotin-labeled Agaricus bisporus agglutinin in pH 7.4 Tris buffer by fluorescence microarray method
[9] = species on record: Homo sapiens; experiment: Binding affinity to biotin-labeled human recombinant laminin-2 at 10 ug/ml in 5.6 MES buffer by fluorescence microarray method
[10] = tested on: Canavalia ensiformis; experiment: Binding affinity to biotin-labeled Canavalia ensiformis agglutinin in pH 7.4 Tris buffer by fluorescence microarray method
[11] = target: Lactotransferrin (Homo sapiens) (UniProt P02788); experiment: Binding affinity to biotin-labeled lactoferrin (unknown origin) at 10 ug/ml in pH 7.4 Tris buffer by fluorescence microarray method
Lactotransferrin (Homo sapiens), sequence (P02788 whole entry): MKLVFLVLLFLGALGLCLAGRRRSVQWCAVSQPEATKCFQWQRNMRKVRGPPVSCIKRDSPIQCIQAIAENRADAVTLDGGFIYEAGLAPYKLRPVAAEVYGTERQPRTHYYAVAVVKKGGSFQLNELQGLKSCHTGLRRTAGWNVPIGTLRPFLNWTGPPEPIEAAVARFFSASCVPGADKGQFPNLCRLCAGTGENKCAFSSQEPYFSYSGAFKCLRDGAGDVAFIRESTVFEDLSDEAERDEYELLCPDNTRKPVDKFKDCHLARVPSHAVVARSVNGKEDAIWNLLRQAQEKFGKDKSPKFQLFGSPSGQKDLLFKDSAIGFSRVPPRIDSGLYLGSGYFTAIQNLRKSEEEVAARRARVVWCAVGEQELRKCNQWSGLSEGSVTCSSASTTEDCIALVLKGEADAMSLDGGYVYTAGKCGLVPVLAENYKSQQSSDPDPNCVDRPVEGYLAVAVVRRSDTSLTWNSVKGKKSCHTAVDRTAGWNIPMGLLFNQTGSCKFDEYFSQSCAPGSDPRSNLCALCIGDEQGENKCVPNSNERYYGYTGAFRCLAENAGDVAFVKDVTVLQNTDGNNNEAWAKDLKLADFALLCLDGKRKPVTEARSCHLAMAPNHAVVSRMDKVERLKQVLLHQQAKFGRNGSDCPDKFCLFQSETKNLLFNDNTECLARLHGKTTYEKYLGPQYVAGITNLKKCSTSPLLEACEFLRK

[12] = tested on: Triticum aestivum; experiment: Binding affinity to biotin-labeled Wheat germ agglutinin in pH 7.4 Tris buffer by fluorescence microarray method
[13] = target: Lactotransferrin (Homo sapiens) (UniProt P02788); experiment: Binding affinity to biotin-labeled lactoferrin (unknown origin) at 10 ug/ml in pH 5.6 MES buffer by fluorescence microarray method
[14] = target: Laminin subunit alpha-1 (Homo sapiens) (UniProt P25391); experiment: Binding affinity to biotin-labeled human recombinant laminin-1 at 10 ug/ml in pH 7.4 Tris buffer by fluorescence microarray method

Row | SMILES | Activity [1] | Activity [2] | Activity [3] | Activity [4] | Activity [5] | Activity [6] | Activity [7] | Activity [8] | Activity [9] | Activity [10] | Activity [11] | Activity [12] | Activity [13] | Activity [14]
1 | CC[C@H](C)[C@H](NC(=O)[C@H](C)NC(=O)CNC(=O)[C@H](CCCNC(=N)N)NC(=O)[C@@H](NC(=O)CCCC(C)=O)[C@@H](C)O)C(=O)N[C@H](C(=O)N[C@@H](CCC(N)=O)C(=O)N[C@H](C(=O)N1CCC[C@H]1C(=O)N[C@H](C(=O)N[C@@H](CC(C)C)C(=O)NCC(=O)N1CCC[C@H]1C(=O)N[C@H](C(=O)N[C@@H](CCC(N)=O)C(=O)N1CCC[C@H]1C(=O)N[C@H](C(=O)N[C@@H](CCCNC(=N)N)C(=O)N[C@H](C(N)=O)C(C)C)[C@@H](C)O[C@H]1O[C@H](CO)[C@@H](O)[C@H](O)[C@@H]1O[C@@H]1O[C@H](CO)[C@@H](O)[C@H](O)[C@H]1NC(C)=O)[C@@H](C)CC)[C@@H](C)O)[C@@H](C)O[C@H]1O[C@H](CO)[C@@H](O)[C@H](O)[C@@H]1O[C@@H]1O[C@H](CO)[C@@H](O)[C@H](O)[C@H]1NC(C)=O)[C@@H](C)CC ({Hexanoyl(5-oxo)}-TRGAIIQT(GlcNAc(β1-2)αMan)PTLGPIQPT(GlcNAc(β1-2)αMan)RV-NH2) | Active | inactive | Active | inactive | Active | inactive | Active | Active | Active | Active | inactive | Active | Active | Active
2 | CC[C@H](C)[C@H](NC(=O)[C@H](C)NC(=O)CNC(=O)[C@H](CCCNC(=N)N)NC(=O)[C@@H](NC(=O)CCCC(C)=O)[C@@H](C)O)C(=O)N[C@H](C(=O)N[C@@H](CCC(N)=O)C(=O)N[C@H](C(=O)N1CCC[C@H]1C(=O)N[C@H](C(=O)N[C@@H](CC(C)C)C(=O)NCC(=O)N1CCC[C@H]1C(=O)N[C@H](C(=O)N[C@@H](CCC(N)=O)C(=O)N1CCC[C@H]1C(=O)N[C@H](C(=O)N[C@@H](CCCNC(=N)N)C(=O)N[C@H](C(N)=O)C(C)C)[C@@H](C)O)[C@@H](C)CC)[C@@H](C)O)[C@@H](C)O)[C@@H](C)CC ({Hexanoyl(5-oxo)}-TRGAIIQTPTLGPIQPTRV-NH2) | Active | inactive | Active | inactive | Active | inactive | Active | Active | Active | Active | inactive | Active | Active | Active
3 | CC[C@H](C)[C@H](NC(=O)[C@H](C)NC(=O)CNC(=O)[C@H](CCCNC(=N)N)NC(=O)[C@@H](NC(=O)CCCC(C)=O)[C@@H](C)O)C(=O)N[C@H](C(=O)N[C@@H](CCC(N)=O)C(=O)N[C@H](C(=O)N1CCC[C@H]1C(=O)N[C@H](C(=O)N[C@@H](CC(C)C)C(=O)NCC(=O)N1CCC[C@H]1C(=O)N[C@H](C(=O)N[C@@H](CCC(N)=O)C(=O)N1CCC[C@H]1C(=O)N[C@H](C(=O)N[C@@H](CCCNC(=N)N)C(=O)N[C@H](C(N)=O)C(C)C)[C@@H](C)O[C@H]1O[C@H](CO)[C@@H](O)[C@H](O)[C@@H]1O[C@@H]1O[C@H](CO)[C@@H](O[C@@H]2O[C@H](CO)[C@H](O)[C@H](O)[C@H]2O)[C@H](O)[C@H]1NC(C)=O)[C@@H](C)CC)[C@@H](C)O[C@H]1O[C@H](CO)[C@@H](O)[C@H](O)[C@@H]1O[C@@H]1O[C@H](CO)[C@@H](O[C@@H]2O[C@H](CO)[C@H](O)[C@H](O)[C@H]2O)[C@H](O)[C@H]1NC(C)=O)[C@@H](C)O)[C@@H](C)CC ({Hexanoyl(5-oxo)}-TRGAIIQTPT(X2)LGPIQPT(X2)RV-NH2) | Active | inactive | Active | inactive | Active | inactive | Active | Active | Active | Active | inactive | Active | Active | Active
4 | CC[C@H](C)[C@H](NC(=O)[C@H](C)NC(=O)CNC(=O)[C@H](CCCNC(=N)N)NC(=O)[C@@H](NC(=O)CCCC(C)=O)[C@@H](C)O)C(=O)N[C@H](C(=O)N[C@@H](CCC(N)=O)C(=O)N[C@H](C(=O)N1CCC[C@H]1C(=O)N[C@H](C(=O)N[C@@H](CC(C)C)C(=O)NCC(=O)N1CCC[C@H]1C(=O)N[C@H](C(=O)N[C@@H](CCC(N)=O)C(=O)N1CCC[C@H]1C(=O)N[C@H](C(=O)N[C@@H](CCCNC(=N)N)C(=O)N[C@H](C(N)=O)C(C)C)[C@@H](C)O)[C@@H](C)CC)[C@@H](C)O[C@H]1O[C@H](CO)[C@@H](O)[C@H](O)[C@@H]1O[C@@H]1O[C@H](CO)[C@@H](O[C@@H]2O[C@H](CO)[C@H](O)[C@H](O[C@]3(C(=O)O)C[C@H](O)[C@@H](NC(C)=O)[C@H]([C@H](O)[C@H](O)CO)O3)[C@H]2O)[C@H](O)[C@H]1NC(C)=O)[C@@H](C)O[C@H]1O[C@H](CO)[C@@H](O)[C@H](O)[C@@H]1O[C@@H]1O[C@H](CO)[C@@H](O[C@@H]2O[C@H](CO)[C@H](O)[C@H](O[C@]3(C(=O)O)C[C@H](O)[C@@H](NC(C)=O)[C@H]([C@H](O)[C@H](O)CO)O3)[C@H]2O)[C@H](O)[C@H]1NC(C)=O)[C@@H](C)CC ({Hexanoyl(5-oxo)}-TRGAIIQT(X1)PT(X1)LGPIQPTRV-NH2) | Active | inactive | Active | inactive | Active | inactive | Active | Active | Active | Active | inactive | Active | Active | Active
